The source of these data is patent US12559497B2, “Imidazopiperazine inhibitors of transcription activating proteins” (Board of Regents, The University of Texas System, priority 2020, dated 2026).

pIC50: −log10 of the molar value.

One may read the pIC50 as the IC50 on a negative log10 scale, so that one unit is a factor of ten. For orientation: clearance means the volume of plasma or blood freed of the substance per unit of time. A word on the AUC(0-t): it is the area under the concentration-time curve up to a stated or last time point. A word on the Cmax: it is the maximum level reached in the sampled fluid or tissue. A word on the bioavailability: it is the share of a dose that reaches the circulation, judged against a reference dose that is usually intravenous.

One data set concerns DOHH2 cells. In words: DOHH2 Proliferation Assay. The format is cell-based. The following applies: Homo sapiens, DOHH-2, 168 h; CellTiter-Glo viability on day 7. The procedure:
DOHH2 Proliferation Assay: On day 1, 1000 DOHH2 cells were seeded to a 384-well TC plate (PerkinElmer #6007680) in 40 μL RPMI 1640 media, followed by the addition of CBP inhibitors except for column 13 where 3.3 μM staurosporine was added as negative control. DMSO was 0.1% in all the wells. The cells were lysed in and counted viability by 40 μL CellTiter-Glo (Promega #G9243) on day 7. The luminescent signal was quantified by Envision Multilabel plate reader and the standard dose response curves were fitted by Genedata Screener software using the variable-slope model: Signal=Signalnegative control+(SignalDMSO control−Signalnegative control)/(1+(IC50/Dose)∧Hill slope).
(§1) Only Signal and Dose in the equation were treated as known values.
Background: ATP-based viability assays read luminescence as a measure of living cells.

The target in data set [1] is T1, BRD4 (49-170) bromodomain (Homo sapiens, UniProt O60885).
T1 construct: The GST tagged bromodomains of CBP (1081-1197) and BRD4 (49-170) were obtained from BPS Bioscience; purchased BPS Bioscience
The data set can be described thus: BRD4 AlphaScreen assay. The following applies: binding to biotin-H4 (1-21) Ac-K5/8/12/16. The procedure: Specific binding of the CBP or BRD4 bromodomain to the acetylated peptide derived from the H4 histone substrate (tetra acetylated H4 (1-21) Ac—K5/8/12/16) was measured in absence or presence of inhibitors. The GST tagged bromodomains of CBP (1081-1197) and BRD4 (49-170) were obtained from BPS Bioscience and binding to the biotinylated H4 (1-21) Ac—K5/8/12/16 (AnaSpec. 64989) was assessed via AlphaScreen technology (Perkin Elmer).
BRD4 AlphaScreen assay: The binding of 2.5 nM of BRD4 (49-170) to 10 nM biotin-H4 (1-21) Ac—K5/8/12/16 (AnaSpec. 64989) was assessed following the same procedure described for the CBP assay. The standard dose response curves were fitted by Genedata Screener software using the variable-slope model: Signal=Signalnegative control+(SignalDMSO control−Signalnegative control)/(1+(IC50/Dose)∧Hill slope).
as §1
For orientation: In Alpha technology, singlet oxygen from a donor bead excites a nearby acceptor bead.

Data set [2] is described as follows: Metabolic stability in rat liver microsomes. It is filed as in vitro ADME. The following applies: Sprague Dawley, pH 7.4, 0.5 mg/mL microsomes, NADPH, 45 minutes, 37° C., read-out: Half-life in liver microsomes (t1/2). Here is the method: Microsomal stability. Microsomal stability assays were conducted on a Beckmann Biomek FXp laboratory automation system. The liver microsomal incubation mixture consisted of liver microsomes (0.5 mg microsomal protein/mL), the Compound (1 μM), MgCl2 (3 mM), and EDTA (1 mM) in potassium phosphate buffer (100 mM, pH 7.4). Midazolam and Ketanserin were used as the assay control substrates. The reaction was initiated with the addition of an NADPH regeneration solution (1.3 mM NADPH) and maintained at 37° C. with shaking. At five time points ranging from 0 to 45 min, aliquots (50 μL) were removed and quenched with acetonitrile (100 μL) containing an internal standard (imipramine). After vortex and centrifugation, samples were analyzed by LC-MS/MS. Calculation of the in vitro half-lives and clearance followed literature guidelines.

Data set [3] in a line: In vivo pharmacokinetics after a single dose, monkey. The following applies: male, plasma, Cynomolgus monkey. The procedure:
IV (intravenous) doses were formulated in 20% DMSO+60% PEG400+20% water. PO (per os) doses were formulated in 0.5% methylcellulose in water.
Monkey: Male Cynomolgus monkeys (purchased from Hainan Jingang Biotech. Co., Ltd) weighing 3-5 kg were used for studies. Animals were fasted overnight and fed 4 h postdose. Test article was administered to monkeys via the cephalic vein (IV doses) or nasal gavage (PO doses). Blood samples were collected via the saphenous vein or cephalic vein from all animals at predose and 0.083, 0.25, 0.5, 1, 2, 4, 8, and 24 h postdose into tubes containing the anticoagulant K2EDTA. Plasma was separated from the blood by centrifugation at 4° C. and stored at −70° C. until analysis. Test article concentrations in plasma were quantified using a liquid chromatography with tandem mass spectrometry (LC-MS/MS) method.

For the compound `CC(=O)N1CCn2c(C3CCOCC3)nc(-c3cccc4cc(-c5cnc(C)s5)ncc34)c2C1` [Compound 1, 1-(1-(3-(2-methylthiazol-5-yl)isoquinolin-8-yl)-3-(tetrahydro-2H-pyran-4-yl)-5,6-dihydroimidazo[1,5-α]pyrazin-7 (8H)-yl)ethan-1-one], the pIC50 with DOHH2 cells was 6.58. The pIC50 in data set [1] is 4.88. For the same compound, in data set [2], the half-life at 1 μM was 20.4 h. In data set [3] (1 mg/kg IV single dose), this compound gave a clearance of 6.97 mL/min/kg and a half-life of 4.74 h. Further, the Vd in data set [3] (1 mg/kg IV single dose, read-out: Vss) is 2.28 L/kg. In data set [3] (3 mg/kg PO single dose), this compound came in with an AUC(0-t) of 11.3 µM·h, a Cmax of 1970 nM and a bioavailability of 70.5%.
